{"source": "the supplement of paper PMC10307832", "assay_in_all_cases": "relative viability (nuclei count vs DMSO), 5 days (fraction); higher = more cells survive", "key": {"Lapatinib + Linsitinib": {"compound": "CS(=O)(=O)CCNCc1ccc(-c2ccc3ncnc(Nc4ccc(OCc5cccc(F)c5)c(Cl)c4)c3c2)o1 [Lapatinib] + C[C@]1(O)C[C@@H](c2nc(-c3ccc4ccc(-c5ccccc5)nc4c3)c3c(N)nccn32)C1 [Linsitinib] (partner 1 µM)", "summary_of_the_method": "(§1)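 The day after seeding in 1536-well plates, lung cancer cell lines were treated by pin tool with a single drug, or with a fixed anchor-drug dose together with five library-drug doses (not always all listed) in √10 steps. After 5 days, a combined fix-and-stain solution (final 0.05% Triton X-100, 1% formaldehyde, 1 ug/ml Hoechst) was added. Nuclei counted on 4× images gave relative viability as treated counts over vehicle counts, reported as the median of duplicate plates.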"}, "Lapatinib + Pictilisib": {"compound": "CS(=O)(=O)CCNCc1ccc(-c2ccc3ncnc(Nc4ccc(OCc5cccc(F)c5)c(Cl)c4)c3c2)o1 [Lapatinib] + CS(=O)(=O)N1CCN(Cc2cc3nc(-c4cccc5[nH]ncc45)nc(N4CCOCC4)c3s2)CC1 [Pictilisib] (partner 1 µM)", "summary_of_the_method": "as §1"}, "Wnt-C59 + Bortezomib": {"compound": "CC1=NC=CC(=C1)C2=CC=C(C=C2)CC(=O)NC3=CC=C(C=C3)C4=CN=CC=C4 [Wnt-C59] + CC(C)C[C@H](NC(=O)[C@H](Cc1ccccc1)NC(=O)c1cnccn1)B(O)O [Bortezomib] (partner 0.002 µM)", "summary_of_the_method": "as §1"}, "Wnt-C59 + Linsitinib": {"compound": "CC1=NC=CC(=C1)C2=CC=C(C=C2)CC(=O)NC3=CC=C(C=C3)C4=CN=CC=C4 [Wnt-C59] + C[C@]1(O)C[C@@H](c2nc(-c3ccc4ccc(-c5ccccc5)nc4c3)c3c(N)nccn32)C1 [Linsitinib] (partner 1 µM)", "summary_of_the_method": "as §1"}}}
{"cell line": "UMC-11", "values": [{"measurement": "relative viability", "setting": "Lapatinib + Linsitinib; first compound 0.02 µM", "value": 1}, {"measurement": "relative viability", "setting": "Lapatinib + Linsitinib; first compound 0.06325 µM", "value": 0.964}, {"measurement": "relative viability", "setting": "Lapatinib + Linsitinib; first compound 0.2 µM", "value": 1.11}, {"measurement": "relative viability", "setting": "Lapatinib + Linsitinib; first compound 0.6325 µM", "value": 0.985}, {"measurement": "relative viability", "setting": "Lapatinib + Linsitinib; first compound 2 µM", "value": 1.02}, {"measurement": "relative viability", "setting": "Lapatinib + Pictilisib; first compound 0.02 µM", "value": 0.251}, {"measurement": "relative viability", "setting": "Lapatinib + Pictilisib; first compound 0.06325 µM", "value": 0.731}, {"measurement": "relative viability", "setting": "Lapatinib + Pictilisib; first compound 0.2 µM", "value": 0.827}, {"measurement": "relative viability", "setting": "Lapatinib + Pictilisib; first compound 0.6325 µM", "value": 0.839}, {"measurement": "relative viability", "setting": "Lapatinib + Pictilisib; first compound 2 µM", "value": 0.759}, {"measurement": "relative viability", "setting": "Wnt-C59 + Bortezomib; first compound 0.001 µM", "value": 0.715}, {"measurement": "relative viability", "setting": "Wnt-C59 + Bortezomib; first compound 0.01 µM", "value": 0.616}, {"measurement": "relative viability", "setting": "Wnt-C59 + Bortezomib; first compound 0.03162 µM", "value": 0.75}, {"measurement": "relative viability", "setting": "Wnt-C59 + Bortezomib; first compound 0.1 µM", "value": 0.728}, {"measurement": "relative viability", "setting": "Wnt-C59 + Linsitinib; first compound 0.001 µM", "value": 0.96}, {"measurement": "relative viability", "setting": "Wnt-C59 + Linsitinib; first compound 0.01 µM", "value": 0.977}, {"measurement": "relative viability", "setting": "Wnt-C59 + Linsitinib; first compound 0.03162 µM", "value": 1.04}, {"measurement": "relative viability", "setting": "Wnt-C59 + Linsitinib; first compound 0.1 µM", "value": 0.991}]}
